Results from patent US4185015A, “Methoxymethyl 6-[D-2,2-dimethyl-4-(4-hydroxyphenyl)-5-oxo-1-imidazolyl]penicillanate” (priority 1977, dated 1980).
Converted amounts (≈) assume the structure as drawn. Like-named read-outs stand apart in the source and are kept apart here.

Key:
[1] = Bioassay of amoxicillin from the ester; settings: 20 mg. ester in 10 ml. of 50/50 acetone/pH 7.0 buffer
Ps. aeruginosa [2] = test: MIC against various organisms (Table I); format: cell-based; settings: Pseudomonas aeruginosa, read-out: minimum inhibitory concentration
D. pneumoniae = test: MIC against various organisms (Table I); format: cell-based; settings: Streptococcus pneumoniae; D. pneumoniae + 5% serum; read-out: minimum inhibitory concentration
E. coli [3] = test: MIC against various organisms (Table I); format: cell-based; settings: Escherichia coli, read-out: minimum inhibitory concentration
Str. pneumoniae = test: MIC in Nutrient Broth (Table III); format: cell-based; settings: Streptococcus pneumoniae, 10^-3 dilution of overnight broth culture, 45% AAB, 5% serum, 50% broth
Excerpt: (§1) Organism in Nutrient Broth
(§2) *45% AAB 5% serum 50% broth listed above,
(§3) **Dilution of overnight broth culture

Str. pyogenes [4] = test: MIC in Nutrient Broth (Table III); format: cell-based; settings: Streptococcus pyogenes, 10^-3 dilution of overnight broth culture, 45% AAB, 5% serum, 50% broth
Excerpt: as §1, §2, §3

Pr. mirabilis [5] = test: MIC in Nutrient Broth (Table III); format: cell-based; settings: Proteus mirabilis; Pr. mirabilis (10^-4)
Excerpt: as §1, §3

S. aureus Meth.-Res. = test: MIC in Nutrient Broth (Table III); format: cell-based; settings: Staphylococcus aureus, S. aureus Meth.-Res. (10^-3), read-out: MIC
Excerpt: as §1, §3

Ent. cloacae = test: MIC in Nutrient Broth (Table III); format: cell-based; settings: Enterobacter cloacae, Ent. cloacae (10^-4), read-out: MIC
Excerpt: as §1, §3

Pr. morganii [6] = test: MIC in Nutrient Broth (Table III); format: cell-based; settings: Morganella morganii; Pr. morganii (10^-4); read-out: MIC
Excerpt: as §1, §3

E. coli [7] = test: MIC in Nutrient Broth (Table III); format: cell-based; settings: Escherichia coli; E. coli (10^-4)
Excerpt: as §1, §3

Sal. enteritidis [8] = test: MIC in Nutrient Broth (Table III); format: cell-based; settings: Salmonella enterica; Sal. enteritidis (10^-4)
Excerpt: as §1, §3

S. aureus Smith [9] = test: MIC in Nutrient Broth (Table III); format: cell-based; settings: Staphylococcus aureus, S. aureus Smith (10^-4)
Excerpt: as §1, §3

Ser. marcescens [10] = test: MIC in Nutrient Broth (Table III); format: cell-based; settings: Serratia marcescens; Ser. marcescens (10^-4)
Excerpt: as §1, §3

Ps. aeruginosa [11] = test: MIC in Nutrient Broth (Table III); format: cell-based; settings: Pseudomonas aeruginosa; Ps. aeruginosa (10^-4); read-out: MIC
Excerpt: as §1, §3

K. pneumoniae [12] = test: MIC in Nutrient Broth (Table III); format: cell-based; settings: Klebsiella pneumoniae, K. pneumoniae (10^-4), read-out: MIC
Excerpt: as §1, §3

S. aureus BX1633 [13] = test: MIC in Nutrient Broth (Table III); format: cell-based; settings: Staphylococcus aureus, read-out: MIC
Excerpt: as §1, §3

E. coli Juhl [14] = test: MIC in Nutrient Broth (Table III); format: cell-based; settings: Escherichia coli; E. coli Juhl (10^-4)
Excerpt: as §1, §3

S. aureus = test: MIC against various organisms (Table I); format: cell-based; settings: Staphylococcus aureus, read-out: minimum inhibitory concentration
Str. pyogenes [15] = test: MIC against various organisms (Table I); format: cell-based; settings: Streptococcus pyogenes; Str. pyogenes + 5% serum; read-out: minimum inhibitory concentration
S. aureus Smith [16] = test: MIC against various organisms (Table I); format: cell-based; settings: Staphylococcus aureus, read-out: minimum inhibitory concentration
Pr. mirabilis [17] = test: MIC against various organisms (Table I); format: cell-based; settings: Proteus mirabilis, read-out: minimum inhibitory concentration
S. aureus BX1633 [18] = test: MIC against various organisms (Table I); format: cell-based; settings: Staphylococcus aureus
Pr. morganii [19] = test: MIC against various organisms (Table I); format: cell-based; settings: Morganella morganii, read-out: minimum inhibitory concentration
in vivo = test: in vivo; set-up: species or system mice; settings: mouse, po, 50 mg/kg
[20] = Oral absorption in man, BL-P1780 Study 101; settings: for Cmax: saliva
Protocol: (§4) Only the latter are biologically active per se. Also, both original ester and parent penicillin were measured.
Three formulations were each administered once orally to six (6) healthy adult male subjects in BL-P1780 Study 101 as follows:
A. BL-P1780, 500 mg. (of amoxicillin-equivalent activity) as two 250 mg. buffered tablets.
B. BL-P1780, 500 mg. (an amoxicillin-equivalent activity) as two 250 mg. buffered tablets with 3.5 g. sodium bicarbonate being taken five minutes prior to the adminstration of BL-P1780.
C. Amoxicillin, 500 mg. as two 250 mg. capsules.
1. To investigate the human safety and tolerance of single 500 mg. doses of BL-P1780.
2. To determine the effect of intragastric buffering with sodium bicarbonate on the absorption of BL-P1780.
3. To compare amoxicillin plasma and saliva concentrations and urinary excretion between BL-P1780 and amoxicillin.

[21] = in vivo
Protocol: as §4

E. coli Juhl [22] = test: MIC against various organisms (Table I); format: cell-based; settings: Escherichia coli, read-out: minimum inhibitory concentration
K. pneumoniae [23] = test: MIC against various organisms (Table I); format: cell-based; settings: Klebsiella pneumoniae, read-out: minimum inhibitory concentration
Sal. enteritidis [24] = test: MIC against various organisms (Table I); format: cell-based; settings: Salmonella enterica, read-out: minimum inhibitory concentration
Ser. marcescens [25] = test: MIC against various organisms (Table I); format: cell-based; settings: Serratia marcescens, read-out: minimum inhibitory concentration
[26] = K. pneumoniae, first of two lines
[27] = man, oral 500 mg., six subjects

Compound: COCOC(=O)[C@@H]1N2C(=O)[C@@H](NC(=O)[C@H](N)c3ccc(O)cc3)[C@H]2SC1(C)C [Example 5, methoxymethyl ester of amoxicillin]
- bioassay of amoxicillin [1]: 1968 µg/mL
- bioassay of amoxicillin, percent of theory [1]: about 110 % of theory

Compound: COCOC(=O)[C@@H]1N2C(=O)[C@@H](N3C(=O)[C@@H](c4ccc(O)cc4)NC3(C)C)[C@H]2SC1(C)C [Example 8, methoxymethyl 6-[D-(-)-2,2-dimethyl-4-(4-hydroxyphenyl)-5-oxo-1-imidazolyl]-penicillanate]
- MIC (Ps. aeruginosa [2]; Ps. aeruginosa): > 125 µg/mL
- MIC (D. pneumoniae): 0.004 µg/mL
- MIC (E. coli [3]): 32 µg/mL (≈ 71.2 µM)
- MIC (Str. pneumoniae): 0.008 µg/mL (≈ 0.0178 µM)
- MIC (Str. pyogenes [4]): 0.008 µg/mL (≈ 0.0178 µM)
- MIC (Pr. mirabilis [5]): 0.25 µg/mL (≈ 0.556 µM)
- MIC (S. aureus Meth.-Res.; 28° C.): 63 µg/mL (≈ 140 µM)
- MIC (S. aureus Meth.-Res.; 37° C.): 125 µg/mL (≈ 278 µM)
- MIC (Ent. cloacae; first of three lines): 125 µg/mL (≈ 278 µM)
- MIC (Ent. cloacae; second of three lines): 125 µg/mL (≈ 278 µM)
- MIC (Ent. cloacae; third of three lines): 63 µg/mL (≈ 140 µM)
- MIC (Pr. morganii [6]): > 125 µg/mL
- MIC (E. coli [7]): 32 µg/mL (≈ 71.2 µM)
- MIC (Sal. enteritidis [8]): 1 µg/mL (≈ 2.22 µM)
- MIC (S. aureus Smith [9]): 0.13 µg/mL (≈ 0.289 µM)
- MIC (Ser. marcescens [10]): > 125 µg/mL
- MIC (Ps. aeruginosa [11]): > 125 µg/mL
- MIC (K. pneumoniae [12]; first of two lines): 0.13 µg/mL (≈ 0.289 µM)
- MIC (K. pneumoniae [12]; second of two lines): > 125 µg/mL
- MIC (S. aureus BX1633 [13]; BX1633, S. aureus BX1633 (10^-2)): > 125 µg/mL
- MIC (S. aureus BX1633 [13]; BX1633, S. aureus BX1633 (10^-3)): 16 µg/mL (≈ 35.6 µM)
- MIC (E. coli Juhl [14]): 1 µg/mL (≈ 2.22 µM)
- MIC (S. aureus; third of three lines): > 125 µg/mL
- MIC (Str. pyogenes [15]): 0.004 µg/mL
- MIC (S. aureus Smith [16]; S. aureus Smith + 50% serum): 0.06 µg/mL
- MIC (S. aureus Smith [16]; S. aureus Smith): 0.06 µg/mL (≈ 0.133 µM)
- MIC (Pr. mirabilis [17]): 0.16 µg/mL (≈ 0.356 µM)
- MIC (S. aureus BX1633 [18]; BX1633, S. aureus BX1633, first of two lines, read-out: minimum inhibitory concentration): 125 µg/mL (≈ 278 µM)
- MIC (S. aureus BX1633 [18]; BX1633, S. aureus BX1633, second of two lines, read-out: minimum inhibitory concentration): > 125 µg/mL
- MIC (Pr. morganii [19]; Pr. morganii): 32 µg/mL (≈ 71.2 µM)
- concentration at 0.5 h (in vivo): 4800 ng/mL
- concentration at 1 h (in vivo): 3500 ng/mL
- concentration at 2 h (in vivo): 1700 ng/mL
- concentration at 3.5 h (in vivo): 700 ng/mL
- need of intragastric buffering for bioavailability or tissue distribution ([20]; in vivo, po): not necessary
- tissue distribution of amoxicillin from BL-P1780 over that of ampicillin, amoxicillin or ampicillin from sarpicillin [21]: markedly improved tissue distribution
- hydrolysis of the ester ([21]; po): hydrolyze eventually to their parent penicillins
- MIC (E. coli Juhl [22]): 1 µg/mL (≈ 2.22 µM)
- MIC (K. pneumoniae [23]; [26]): 0.16 µg/mL (≈ 0.356 µM)
- MIC (K. pneumoniae [23]; K. pneumoniae, second of two lines): > 125 µg/mL
- MIC (Sal. enteritidis [24]): 0.13 µg/mL (≈ 0.289 µM)
- MIC (Ser. marcescens [25]): 32 µg/mL (≈ 71.2 µM)

Compound: CC1(C)S[C@@H]2[C@H](NC(=O)[C@H](N)c3ccc(O)cc3)C(=O)N2[C@H]1C(=O)O [amoxicillin, D-6-(p-hydroxy-α-aminophenylacetamido)penicillanic acid]
- Cmax ([20]; human, po, 500 mg, maximum saliva amoxicillin level, man, oral 500 mg.): 60 ng/mL
- Cmax ([20]; human, po, 500 mg, mean peak saliva amoxicillin level, man, oral 500 mg.): 30 ng/mL
- dose excreted at 24 h ([20]; human, urine, po, 500 mg): 50.9%
- time course of saliva amoxicillin levels ([20]; man, oral 500 mg.): delayed and erratic
- subjects found to be slow absorbers [20, 27]: Two of the six subjects
- subjects with detectable saliva amoxicillin levels [20, 27]: only 3 of the 6 subjects

Compound: CC1(C)S[C@@H]2[C@H](NC(=O)[C@H](N)c3ccccc3)C(=O)N2[C@H]1C(=O)O [Cpd. A, ampicillin]
- MIC (Ps. aeruginosa [2]): > 125 µg/mL
- MIC (D. pneumoniae): 0.004 µg/mL
- MIC (E. coli [3]): 32 µg/mL (≈ 91.6 µM)
- MIC (S. aureus; first of three lines): 125 µg/mL (≈ 358 µM)
- MIC (S. aureus; second of three lines): 125 µg/mL (≈ 358 µM)
- MIC (S. aureus; third of three lines): > 125 µg/mL
- MIC (Str. pyogenes [15]): 0.004 µg/mL
- MIC (S. aureus Smith [16]; S. aureus Smith + 50% serum): 0.06 µg/mL
- MIC (S. aureus Smith [16]; S. aureus Smith): 0.03 µg/mL (≈ 0.0859 µM)
- MIC (Pr. mirabilis [17]): 0.16 µg/mL (≈ 0.458 µM)
- MIC (S. aureus BX1633 [18]; BX1633, read-out: minimum inhibitory concentration, S. aureus BX1633, first of two lines): 125 µg/mL (≈ 358 µM)
- MIC (S. aureus BX1633 [18]; BX1633, read-out: minimum inhibitory concentration, S. aureus BX1633, second of two lines): > 125 µg/mL
- MIC (Pr. morganii [19]): > 125 µg/mL
- concentration at 0.5 h (in vivo): 3300 ng/mL
- concentration at 1 h (in vivo): 2100 ng/mL
- concentration at 2 h (in vivo): 900 ng/mL
- concentration at 3.5 h (in vivo): 500 ng/mL
- MIC (E. coli Juhl [22]): 1 µg/mL (≈ 2.86 µM)
- MIC (K. pneumoniae [23]; [26]): 0.3 µg/mL (≈ 0.859 µM)
- MIC (K. pneumoniae [23]): 125 µg/mL (≈ 358 µM)
- MIC (Sal. enteritidis [24]): 0.13 µg/mL (≈ 0.372 µM)
- MIC (Ser. marcescens [25]): 32 µg/mL (≈ 91.6 µM)
